IC50 data for six compounds are collected here from patent publication US20120121591A1 (priority 2009, published 2012).

pIC50: −log10 of the molar value. Where two headings read alike, the source gives them in different places.

Holding throughout (assay type): cell-based
The subject of experiment [1] is IFN-g secretion from T cells in human whole blood. The note with it: read-out: WB (IFNg) IC50 (nM, Avg).
The target in the next experiment is hKv1.3 (Homo sapiens, UniProt P22001). As to the kind of experiment: cell-based. The note with it: Kv1.3 (IWQ) IC50 (nM, Avg).
Sequence of hKv1.3 (P22001 whole entry): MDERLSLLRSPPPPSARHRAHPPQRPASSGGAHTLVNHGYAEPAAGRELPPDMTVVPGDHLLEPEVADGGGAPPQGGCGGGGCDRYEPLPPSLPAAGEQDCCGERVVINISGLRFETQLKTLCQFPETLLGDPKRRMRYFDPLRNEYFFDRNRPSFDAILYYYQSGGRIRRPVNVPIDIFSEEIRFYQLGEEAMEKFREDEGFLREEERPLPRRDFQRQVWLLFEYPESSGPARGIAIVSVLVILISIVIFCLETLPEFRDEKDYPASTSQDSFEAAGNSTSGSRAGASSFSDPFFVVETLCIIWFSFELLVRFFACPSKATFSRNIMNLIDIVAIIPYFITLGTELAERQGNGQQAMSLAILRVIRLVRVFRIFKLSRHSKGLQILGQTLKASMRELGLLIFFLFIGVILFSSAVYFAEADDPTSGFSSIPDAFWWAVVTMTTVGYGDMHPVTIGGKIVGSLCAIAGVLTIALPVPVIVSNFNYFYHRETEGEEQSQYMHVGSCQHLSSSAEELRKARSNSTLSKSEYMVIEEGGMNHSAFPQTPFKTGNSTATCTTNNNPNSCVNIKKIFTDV
Experiment [2] has as its system IL-2 secretion from T cells in human whole blood. The note with it: for IC50: read-out: WB (IL-2) IC50 (nM, Avg).

For the compound `CCCC[C@@H]1NC(=O)[C@H](CO)NC(=O)[C@H](Cc2c[nH]cn2)NC(=O)[C@H](CCCCN)NC(=O)[C@@H]2CSSC[C@@H]3NC(=O)[C@H]([C@@H](C)O)NC(=O)[C@H](CCCCN)NC(=O)[C@H](CCCNC(=N)N)NC(=O)[C@H](CSSC[C@H](NC(=O)[C@H](CCCNC(=N)N)NC(=O)[C@H](CO)NC(=O)[C@H](CCCCN)NC(=O)[C@@H]4CCCN4C(=O)[C@H]([C@@H](C)CC)NC(=O)[C@H]([C@@H](C)O)NC(=O)[C@H](CC(=O)O)NC(=O)[C@H]([C@@H](C)CC)NC(=O)[C@@H](NC(=O)[C@H](CO)NC(=O)[C@@H](N)CCCNC(=N)N)CSSC[C@@H](C(=O)N[C@@H](CC(=O)O)C(N)=O)NC(=O)[C@H]([C@@H](C)O)NC(=O)CNC3=O)C(=O)N[C@@H]([C@@H](C)O)C(=O)N[C@@H](C)C(=O)N[C@@H](Cc3ccccc3)C(=O)N[C@@H](CCCCN)C(=O)N2)NC(=O)[C@H](Cc2ccccc2)NC(=O)[C@H](CO)NC(=O)[C@H](CC(C)C)NC(=O)[C@H](CCCNC(=N)N)NC(=O)[C@H](Cc2ccc(O)cc2)NC(=O)[C@H](CCCCN)NC1=O` [[Lys16, Nle21]ShK-Asp-amide], the half-maximal inhibitory concentration (IC50) amounted to 0.403 nM in experiment [1], 0.39 nM against hKv1.3 and 0.295 nM in experiment [2].

As to `CCCC[C@@H]1NC(=O)[C@H](CO)NC(=O)[C@H](Cc2c[nH]cn2)NC(=O)[C@H](CCCCN)NC(=O)[C@@H]2CSSC[C@@H]3NC(=O)[C@H]([C@@H](C)O)NC(=O)[C@H](CCCCN)NC(=O)[C@H](CCCNC(=N)N)NC(=O)[C@H](CSSC[C@H](NC(=O)[C@H](CCCNC(=N)N)NC(=O)[C@H](CO)NC(=O)[C@H](CCCCN)NC(=O)[C@@H]4CCCN4C(=O)[C@H]([C@@H](C)CC)NC(=O)[C@H]([C@@H](C)O)NC(=O)[C@H](CC(=O)O)NC(=O)[C@H]([C@@H](C)CC)NC(=O)[C@@H](NC(=O)[C@H](CO)NC(=O)[C@@H](N)CCCNC(=N)N)CSSC[C@@H](C(N)=O)NC(=O)[C@H]([C@@H](C)O)NC(=O)CNC3=O)C(=O)N[C@@H]([C@@H](C)O)C(=O)N[C@@H](C)C(=O)N[C@@H](Cc3ccccc3)C(=O)N[C@@H](CCCCN)C(=O)N2)NC(=O)[C@H](Cc2ccccc2)NC(=O)[C@H](CO)NC(=O)[C@H](CC(C)C)NC(=O)[C@H](CCCNC(=N)N)NC(=O)[C@H](Cc2ccc(O)cc2)NC(=O)[C@H](CCCCN)NC1=O` [[Lys16, Nle21]ShK-amide], the IC50 came to 1.1 nM in experiment [1], 0.153 nM on hKv1.3 and 0.823 nM in experiment [2]. Moreover, in experiment [2] (read-out: WB (IL-2) IC50), the negative logarithm of the IC50 (pIC50) is 9.09.

In the case of `CCC[C@@H]1NC(=O)[C@H](CO)NC(=O)[C@H](Cc2c[nH]cn2)NC(=O)[C@H](CCCCN)NC(=O)[C@@H]2CSSC[C@@H]3NC(=O)[C@H]([C@@H](C)O)NC(=O)[C@H](CCCCN)NC(=O)[C@H](CCCNC(=N)N)NC(=O)[C@H](CSSC[C@H](NC(=O)[C@H](CCCNC(=N)N)NC(=O)[C@H](CO)NC(=O)[C@H](CCCCN)NC(=O)[C@@H]4CCCN4C(=O)[C@H]([C@@H](C)CC)NC(=O)[C@H]([C@@H](C)O)NC(=O)[C@H](CC(=O)O)NC(=O)[C@H]([C@@H](C)CC)NC(=O)[C@@H](NC(=O)[C@H](CO)NC(=O)[C@@H](N)CCCNC(=N)N)CSSC[C@@H](C(=O)N[C@@H](CCC(=O)O)C(N)=O)NC(=O)[C@H]([C@@H](C)O)NC(=O)CNC3=O)C(=O)N[C@@H]([C@@H](C)O)C(=O)N[C@@H](C)C(=O)N[C@@H](Cc3ccccc3)C(=O)N[C@@H](CCCCN)C(=O)N2)NC(=O)[C@H](Cc2ccccc2)NC(=O)[C@H](CO)NC(=O)[C@H](CC(C)C)NC(=O)[C@H](CCCNC(=N)N)NC(=O)[C@H](Cc2ccc(O)cc2)NC(=O)[C@H](CCCCN)NC1=O` [[Lys16, Nva21]ShK-Glu-amide], the figures for the IC50 (in experiment [1]; on hKv1.3; in experiment [2]) were 0.353 nM, 0.21 nM and 0.218 nM, respectively.

Take `CCC[C@@H]1NC(=O)[C@H](CO)NC(=O)[C@H](Cc2c[nH]cn2)NC(=O)[C@H](CCCCN)NC(=O)[C@@H]2CSSC[C@@H]3NC(=O)[C@H]([C@@H](C)O)NC(=O)[C@H](CCCCN)NC(=O)[C@H](CCCNC(=N)N)NC(=O)[C@H](CSSC[C@H](NC(=O)[C@H](CCCNC(=N)N)NC(=O)[C@H](CO)NC(=O)[C@H](CCCCN)NC(=O)[C@@H]4CCCN4C(=O)[C@H]([C@@H](C)CC)NC(=O)[C@H]([C@@H](C)O)NC(=O)[C@H](CC(=O)O)NC(=O)[C@H]([C@@H](C)CC)NC(=O)[C@@H](NC(=O)[C@H](CO)NC(=O)[C@@H](N)CCCNC(=N)N)CSSC[C@@H](C(N)=O)NC(=O)[C@H]([C@@H](C)O)NC(=O)CNC3=O)C(=O)N[C@@H]([C@@H](C)O)C(=O)N[C@@H](C)C(=O)N[C@@H](Cc3ccccc3)C(=O)N[C@@H](CCCCN)C(=O)N2)NC(=O)[C@H](Cc2ccccc2)NC(=O)[C@H](CO)NC(=O)[C@H](CC(C)C)NC(=O)[C@H](CCCNC(=N)N)NC(=O)[C@H](Cc2ccc(O)cc2)NC(=O)[C@H](CCCCN)NC1=O` [[Lys16, Nva21]ShK-amide]: the half-maximal inhibitory concentration (IC50) in experiment [1] stood at 0.932 nM; against hKv1.3, 0.47 nM; in experiment [2], 0.486 nM.

As for `CC[C@H](C)[C@@H]1NC(=O)[C@@H](NC(=O)[C@H](CO)NC(=O)[C@@H](N)CCCNC(=N)N)CSSC[C@@H](C(N)=O)NC(=O)[C@H]([C@@H](C)O)NC(=O)CNC(=O)[C@@H]2CSSC[C@@H]3NC(=O)[C@H](CCCCN)NC(=O)[C@H](Cc4ccccc4)NC(=O)[C@H](C)NC(=O)[C@H]([C@@H](C)O)NC(=O)[C@H](CSSC[C@H](NC(=O)[C@H](Cc4ccccc4)NC(=O)[C@H](CO)NC(=O)[C@H](CC(C)C)NC(=O)[C@H](CCCNC(=N)N)NC(=O)[C@H](Cc4ccc(O)cc4)NC(=O)[C@H](CCCCN)NC(=O)[C@H](Cc4ccccc4)NC(=O)[C@H](CO)NC(=O)[C@H](Cc4c[nH]cn4)NC(=O)[C@H](CCCCN)NC3=O)C(=O)N[C@@H](CCCNC(=N)N)C(=O)N[C@@H](CCCCN)C(=O)N[C@@H]([C@@H](C)O)C(=O)N2)NC(=O)[C@H](CCCNC(=N)N)NC(=O)[C@H](CO)NC(=O)[C@H](CCCCN)NC(=O)[C@@H]2CCCN2C(=O)[C@H]([C@@H](C)CC)NC(=O)[C@H]([C@@H](C)O)NC(=O)[C@H](CC(=O)O)NC1=O` [[Lys16, Phe21]ShK-amide], the IC50 in experiment [1] came out at 2.04 nM; against hKv1.3, 0.246 nM; in experiment [2], 1.47 nM.

`CC[C@H](C)[C@@H]1NC(=O)[C@@H](NC(=O)[C@H](CO)NC(=O)[C@@H](N)CCCNC(=N)N)CSSC[C@@H](C(N)=O)NC(=O)[C@H]([C@@H](C)O)NC(=O)CNC(=O)[C@@H]2CSSC[C@@H]3NC(=O)[C@H](CCCCN)NC(=O)[C@H](Cc4ccccc4)NC(=O)[C@H](C)NC(=O)[C@H]([C@@H](C)O)NC(=O)[C@H](CSSC[C@H](NC(=O)[C@H](Cc4ccccc4)NC(=O)[C@H](CO)NC(=O)[C@H](CC(C)C)NC(=O)[C@H](CCCNC(=N)N)NC(=O)[C@H](Cc4ccc(O)cc4)NC(=O)[C@H](CCCCN)NC(=O)[C@H](CO)NC(=O)[C@H](CO)NC(=O)[C@H](Cc4c[nH]cn4)NC(=O)[C@H](CCCCN)NC3=O)C(=O)N[C@@H](CCCNC(=N)N)C(=O)N[C@@H](CCCCN)C(=O)N[C@@H]([C@@H](C)O)C(=O)N2)NC(=O)[C@H](CCCNC(=N)N)NC(=O)[C@H](CO)NC(=O)[C@H](CCCCN)NC(=O)[C@@H]2CCCN2C(=O)[C@H]([C@@H](C)CC)NC(=O)[C@H]([C@@H](C)O)NC(=O)[C@H](CC(=O)O)NC1=O` [[Lys16, Ser21]ShK-amide]: the IC50 in experiment [1] stood at 1.71 nM; on hKv1.3 it was 0.068 nM; in experiment [2], 1.45 nM.
